Test results: patent publication US20160367623A1, “AGONISTS OF GUANYLATE CYCLASE USEFUL FOR THE TREATMENT OF GASTROINTESTINAL DISORDERS, INFLAMMATION, CANCER AND OTHER DISORDERS” (priority 2015, published 2016)
Bridge positions count the residues as written; N and C are the ends. Ends that are not written are not given here.

Test system: patients with chronic idiopathic constipation (CIC)
Experiment: Second phase 3 CIC trial: change from baseline in CSBMs/week
Format: in vivo, human
[1] = Post-Treatment Week 13, 3 mg, ITT Population, MRA
[2] = Post-Treatment Week 13, 3 mg, ITT Population-Excluding Duplicate Patients, MRA
[3] = Post-Treatment Week 13, 6 mg, ITT Population, MRA
[4] = Post-Treatment Week 13, 6 mg, ITT Population-Excluding Duplicate Patients, MRA
[5] = Post-Treatment Week 14, 3 mg, ITT Population, MRA
[6] = Post-Treatment Week 14, 3 mg, ITT Population-Excluding Duplicate Patients, MRA
[7] = Post-Treatment Week 14, 6 mg, ITT Population, MRA
[8] = Post-Treatment Week 14, 6 mg, ITT Population-Excluding Duplicate Patients, MRA
[9] = Week 1, 3 mg, ITT Population, MRA
[10] = Week 1, 3 mg, ITT Population-Excluding Duplicate Patients, MRA
[11] = Week 1, 6 mg, ITT Population, MRA
[12] = Week 1, 6 mg, ITT Population-Excluding Duplicate Patients, MRA
[13] = Week 2, 3 mg, ITT Population, MRA
[14] = Week 2, 3 mg, ITT Population-Excluding Duplicate Patients, MRA
[15] = Week 2, 6 mg, ITT Population, MRA
[16] = Week 2, 6 mg, ITT Population-Excluding Duplicate Patients, MRA
[17] = Week 3, 3 mg, ITT Population, MRA
[18] = Week 3, 3 mg, ITT Population-Excluding Duplicate Patients, MRA
[19] = Week 3, 6 mg, ITT Population, MRA

## Asn^1-Asp^2-Glu^3-Cys^4-Glu^5-Leu^6-Cys^7-Val^8-Asn^9-Val^10-Ala^11-Cys^12-Thr^13-Gly^14-Cys^15-Leu^16 (NDECELCVNVACTGCL; disulfide 4-12, 7-15) [Plecanatide, uroguanylin analogue, guanylate cyclase-C agonist; (C4:C12, C7:C15) bicycle peptide]
6 mg, overall average estimate across the 12-week treatment period, All Randomized (includes Duplicate Patients)
  Change from Baseline in CSBMs, LS Mean (SE): 2.14 (0.129) CSBMs/week
Active Combined, Post-Treatment Week 13, All Randomized (includes Duplicate Patients)
  Change from Baseline in CSBMs, Mean (SD): 1.73 (2.552) CSBMs/week
Active Combined, Post-Treatment Week 14, All Randomized (includes Duplicate Patients)
  Change from Baseline in CSBMs, Mean (SD): 1.69 (2.591) CSBMs/week
Active Combined, Week 1, All Randomized (includes Duplicate Patients)
  Change from Baseline in CSBMs, Mean (SD): 1.73 (2.803) CSBMs/week
Active Combined, Week 2, All Randomized (includes Duplicate Patients)
  Change from Baseline in CSBMs, Mean (SD): 1.83 (3.037) CSBMs/week
Active Combined, Week 3, All Randomized (includes Duplicate Patients)
  Change from Baseline in CSBMs, Mean (SD): 1.89 (3.005) CSBMs/week
[1]
  Change from Baseline in CSBMs, Difference from Placebo: 0.43 CSBMs/week
  Change from Baseline in CSBMs, LS Mean (SE): 1.94 (0.134) CSBMs/week
  Change from Baseline in CSBMs, Mean (SD): 1.88 (2.733) CSBMs/week
[2]
  Change from Baseline in CSBMs, Difference from Placebo: 0.46 CSBMs/week
  Change from Baseline in CSBMs, LS Mean (SE): 1.96 (0.135) CSBMs/week
  Change from Baseline in CSBMs, Mean (SD): 1.90 (2.743) CSBMs/week
[3]
  Change from Baseline in CSBMs, Difference from Placebo: 0.20 CSBMs/week
  Change from Baseline in CSBMs, LS Mean (SE): 1.70 (0.134) CSBMs/week
  Change from Baseline in CSBMs, Mean (SD): 1.64 (2.393) CSBMs/week
[4]
  Change from Baseline in CSBMs, Difference from Placebo: 0.18 CSBMs/week
  Change from Baseline in CSBMs, LS Mean (SE): 1.69 (0.133) CSBMs/week
  Change from Baseline in CSBMs, Mean (SD): 1.62 (2.339) CSBMs/week
Post-Treatment Week 13, Active Combined, ITT Population-Excluding Duplicate Patients, MRA
  Change from Baseline in CSBMs, Mean (SD): 1.76 (2.547) CSBMs/week
Post-Treatment Week 13, Active Combined, ITT Population, MRA
  Change from Baseline in CSBMs, Mean (SD): 1.76 (2.567) CSBMs/week
[5]
  Change from Baseline in CSBMs, Difference from Placebo: 0.43 CSBMs/week
  Change from Baseline in CSBMs, LS Mean (SE): 1.82 (0.136) CSBMs/week
  Change from Baseline in CSBMs, Mean (SD): 1.78 (2.620) CSBMs/week
[6]
  Change from Baseline in CSBMs, Difference from Placebo: 0.43 CSBMs/week
  Change from Baseline in CSBMs, LS Mean (SE): 1.83 (0.137) CSBMs/week
  Change from Baseline in CSBMs, Mean (SD): 1.78 (2.628) CSBMs/week
[7]
  Change from Baseline in CSBMs, Difference from Placebo: 0.34 CSBMs/week
  Change from Baseline in CSBMs, LS Mean (SE): 1.73 (0.137) CSBMs/week
  Change from Baseline in CSBMs, Mean (SD): 1.67 (2.616) CSBMs/week
[8]
  Change from Baseline in CSBMs, Difference from Placebo: 0.31 CSBMs/week
  Change from Baseline in CSBMs, LS Mean (SE): 1.71 (0.136) CSBMs/week
  Change from Baseline in CSBMs, Mean (SD): 1.64 (2.536) CSBMs/week
Post-Treatment Week 14, Active Combined, ITT Population-Excluding Duplicate Patients, MRA
  Change from Baseline in CSBMs, Mean (SD): 1.71 (2.582) CSBMs/week
Post-Treatment Week 14, Active Combined, ITT Population, MRA
  Change from Baseline in CSBMs, Mean (SD): 1.72 (2.616) CSBMs/week
[9]
  Change from Baseline in CSBMs, Difference from Placebo: 0.88 CSBMs/week
  Change from Baseline in CSBMs, LS Mean (SE): 1.72 (0.153) CSBMs/week
  Change from Baseline in CSBMs, Mean (SD): 1.75 (2.732) CSBMs/week
[10]
  Change from Baseline in CSBMs, Difference from Placebo: 0.88 CSBMs/week
  Change from Baseline in CSBMs, LS Mean (SE): 1.75 (0.155) CSBMs/week
  Change from Baseline in CSBMs, Mean (SD): 1.78 (2.752) CSBMs/week
[11]
  Change from Baseline in CSBMs, Difference from Placebo: 0.88 CSBMs/week
  Change from Baseline in CSBMs, LS Mean (SE): 1.71 (0.151) CSBMs/week
  Change from Baseline in CSBMs, Mean (SD): 1.72 (2.897) CSBMs/week
[12]
  Change from Baseline in CSBMs, Difference from Placebo: 0.87 CSBMs/week
  Change from Baseline in CSBMs, LS Mean (SE): 1.74 (0.153) CSBMs/week
  Change from Baseline in CSBMs, Mean (SD): 1.74 (2.911) CSBMs/week
Week 1, Active Combined, ITT Population-Excluding Duplicate Patients, MRA
  Change from Baseline in CSBMs, Mean (SD): 1.76 (2.832) CSBMs/week
Week 1, Active Combined, ITT Population, MRA
  Change from Baseline in CSBMs, Mean (SD): 1.74 (2.815) CSBMs/week
[13]
  Change from Baseline in CSBMs, Difference from Placebo: 0.86 CSBMs/week
  Change from Baseline in CSBMs, LS Mean (SE): 1.82 (0.153) CSBMs/week
  Change from Baseline in CSBMs, Mean (SD): 1.81 (2.963) CSBMs/week
[14]
  Change from Baseline in CSBMs, Difference from Placebo: 0.85 CSBMs/week
  Change from Baseline in CSBMs, LS Mean (SE): 1.84 (0.155) CSBMs/week
  Change from Baseline in CSBMs, Mean (SD): 1.82 (2.986) CSBMs/week
[15]
  Change from Baseline in CSBMs, Difference from Placebo: 0.85 CSBMs/week
  Change from Baseline in CSBMs, LS Mean (SE): 1.81 (0.152) CSBMs/week
  Change from Baseline in CSBMs, Mean (SD): 1.84 (3.158) CSBMs/week
[16]
  Change from Baseline in CSBMs, Difference from Placebo: 0.85 CSBMs/week
  Change from Baseline in CSBMs, LS Mean (SE): 1.84 (0.154) CSBMs/week
  Change from Baseline in CSBMs, Mean (SD): 1.85 (3.171) CSBMs/week
Week 2, Active Combined, ITT Population-Excluding Duplicate Patients, MRA
  Change from Baseline in CSBMs, Mean (SD): 1.84 (3.079) CSBMs/week
Week 2, Active Combined, ITT Population, MRA
  Change from Baseline in CSBMs, Mean (SD): 1.82 (3.061) CSBMs/week
[17]
  Change from Baseline in CSBMs, Difference from Placebo: 0.74 CSBMs/week
  Change from Baseline in CSBMs, LS Mean (SE): 1.94 (0.153) CSBMs/week
  Change from Baseline in CSBMs, Mean (SD): 1.94 (3.117) CSBMs/week
[18]
  Change from Baseline in CSBMs, Difference from Placebo: 0.74 CSBMs/week
  Change from Baseline in CSBMs, LS Mean (SE): 1.96 (0.156) CSBMs/week
  Change from Baseline in CSBMs, Mean (SD): 1.95 (3.143) CSBMs/week
[19]
  Change from Baseline in CSBMs, Difference from Placebo: 0.61 CSBMs/week
  Change from Baseline in CSBMs, LS Mean (SE): 1.81 (0.152) CSBMs/week
